# Assay results from US20060115865A1, “Lamotrigine analogs” (priority 2004, published 2006).
# Read-outs that look alike come from different tables or passages of the source.
# Tests used:
# [1] = cited from earlier work
# [2] = Solubility of 74W86 in common solvents; type: physicochemical; settings: most common solvents
# [3] = system: anti-lamotrigine antibody; assay: Cross-reactivity of polyclonal antibody with lamotrigine metabolites spiked into human serum; type: binding; settings: metabolite at 500 μg/mL spiked into human serum; polyclonal antisera
# Procedure: A polyclonal antisera is obtained and an assay is performed in order to determine the amount of cross-reactivity of the polyclonal antibody with lamotrigine and lamotrigine metabolites. A known amount of lamotrigine is used to react with an anti-lamotrigine antibody prepared in accordance with the present invention. The known concentration of lamotrigine is used to calculate the amount of cross-reactivity between the antibody preparation and the metabolites as follows: N-methyl (29); N-oxide (30); and N-2 gluronide (31). The percent of cross-reactivity equals 100 times the observed concentration of lamotrigine in μg/mL, which is then divided by the concentration of added metabolites in μg/mL. No cross-reactivity is observed in specimens containing those metabolites. High concentrations of these compounds are spiked into human serum and tested as samples. The metabolites are assayed and compared to control serum (no lamotrigine). Cross reactivity is calculated using the following equation: [formula]
# [4] = responders (>50% seizure reduction)
compound,measurement,setting,value
"Nc1nnc(-c2cccc(Cl)c2Cl)c(N)n1 [lamotrigine, 3,5-diamino-6-(2,3-dichlorophenyl)-1,2,4-triazine]","lamotrigine concentration, range",[1]; patients with side effects,31 to 60 µmol/L
same,median lamotrigine concentration,[1]; patients with side effects,62 µmol/L
same,"lamotrigine concentration, range",[1]; [4],8 to 60 µmol/L
same,median lamotrigine concentration,[1]; [4],31 µmol/L
Nc1nnc(-c2cccc(Cl)c2Cl)c(NC(=O)CCC(=O)O)n1 [74W86],solubility,[2],poor solubility in most common solvents
Nc1nc(N)[n+]([O-])nc1-c1cccc(Cl)c1Cl [N-2 oxide],cross-reactivity,[3],< 3%
C[n+]1nc(-c2cccc(Cl)c2Cl)c(N)nc1N [N-2 methyl],cross-reactivity,[3],do not have any cross-reactivity
